{
  "source": "patent US5776944A",
  "about": "“7-(4-aminomethyl-3-methyloxyiminopyrroplidin-1-yl)-1-cyclopropyl-6-flu oro-4-oxo-1,4-dihydro-1,8-naphthyridine-3-carboxylic acid and the process for the preparation thereof” (LG Chemical Ltd., priority 1994, dated 1998)",
  "key": {"[1]": {"tested_on": "Enterobacter cloacae 1194E", "assay": "microbe, parasite or virus in culture", "assay_type": "cell-based", "conditions": "18 h, read-out: Minimum Inhibitory Concentration: MIC"}, "Micrococcus luteus 9341": {"tested_on": "Micrococcus luteus 9341", "assay": "In vitro antibacterial activity (MIC, agar medium dilution), Biological Example 4", "assay_type": "cell-based", "conditions": "18 h; Micrococcus luteus 9341, Table 32, ratio of weight; read-out: Minimum Inhibitory Concentration: MIC"}, "[2]": {"tested_on": "Escherichia coli TEM9 2639E", "assay": "In vitro antibacterial activity (MIC, agar medium dilution), Biological Example 4", "assay_type": "cell-based", "conditions": "TEM92639E, 18 h, read-out: Minimum Inhibitory Concentration: MIC"}, "[3]": {"tested_on": "Acinetobacter calcoaceticus 15473", "assay": "In vitro antibacterial activity (MIC, agar medium dilution), Biological Example 4", "assay_type": "cell-based", "conditions": "18 h; Acinetobacter calcoaceticus 15473, Table 32, ratio of weight; read-out: Minimum Inhibitory Concentration: MIC"}, "physchem": {"assay": "physchem", "conditions": "phosphate buffered solution"}, "[4]": {"tested_on": "Staphylococcus aureus 241", "assay": "In vitro antibacterial activity (MIC, agar medium dilution), Biological Example 4", "assay_type": "cell-based", "conditions": "Staphylococcus aureus, 241, 18 h, Staphylococcus aureus 241, Table 32, ratio of weight; read-out: Minimum Inhibitory Concentration: MIC"}, "[5]": {"assay_type": "physicochemical"}, "Enterobacter cloacae P99": {"tested_on": "Enterobacter cloacae P99", "assay": "microbe, parasite or virus in culture", "assay_type": "cell-based", "conditions": "P99, 18 h, read-out: Minimum Inhibitory Concentration: MIC"}, "Seratis marsecence 1826E": {"tested_on": "Seratis marsecence 1826E", "assay": "In vitro antibacterial activity (MIC, agar medium dilution), Biological Example 4", "assay_type": "cell-based", "conditions": "18 h, Table 32, ratio of weight, read-out: Minimum Inhibitory Concentration: MIC", "protocol": "(§1) In order to determine the antibacterial activitiers of the E- and Z-isomner of the compound 180 which were separated in Example 203, and of 7- (4-aminomethyl-3-methyloxylminopyrrolidin-1-yl)-1-cyclopropyl-6-fluoro-4-oxo-1,4-dihydro-1,8-naphthyridine-3-carboxylic acid methanesulfonate prepared in Example 204, in vitro antibacterial activities of them were measured using agar medium dilution method. The results were as described in the following Tables 31 and 32."}, "[6]": {"tested_on": "Pseudomonas aeruginosa 10145", "assay": "In vitro antibacterial activity (MIC, agar medium dilution), Biological Example 4", "assay_type": "cell-based", "conditions": "Pseudomonas aeruginosa, 10145, 18 h, Pseudomonas aeruginosa 10145, Table 32, ratio of weight; read-out: Minimum Inhibitory Concentration: MIC"}, "Bacillus subtilis 6633": {"tested_on": "Bacillus subtilis 6633", "assay": "In vitro antibacterial activity (MIC, agar medium dilution), Biological Example 4", "assay_type": "cell-based", "conditions": "18 h; Bacillus subtilis 6633, Table 32, ratio of weight; read-out: Minimum Inhibitory Concentration: MIC"}, "[7]": {"tested_on": "Salmonella thypimurium 14028", "assay": "In vitro antibacterial activity (MIC, agar medium dilution), Biological Example 4", "assay_type": "cell-based", "conditions": "18 h; Salmonella thypimurium 14028, Table 32, ratio of weight; read-out: Minimum Inhibitory Concentration: MIC"}, "test strains": {"tested_on": "test strains", "assay": "In vitro antibacterial activity, overall finding, Biological Example 4", "assay_type": "cell-based", "conditions": "Tables 31 and 32", "protocol": "as §1"}, "Proteus vulgaris 6059": {"tested_on": "Proteus vulgaris 6059", "assay": "In vitro antibacterial activity (MIC, agar medium dilution), Biological Example 4", "assay_type": "cell-based", "conditions": "18 h; Proteus vulgaris 6059, Table 32, ratio of weight; read-out: Minimum Inhibitory Concentration: MIC"}, "Escherichia coli 3190Y": {"tested_on": "Escherichia coli 3190Y", "assay": "In vitro antibacterial activity (MIC, agar medium dilution), Biological Example 4", "assay_type": "cell-based", "conditions": "18 h, Table 32, ratio of weight, read-out: Minimum Inhibitory Concentration: MIC"}, "[8]": {"tested_on": "Streptococcus faecalis 29212", "assay": "In vitro antibacterial activity (MIC, agar medium dilution), Biological Example 4", "assay_type": "cell-based", "conditions": "Enterococcus faecalis, 29212, 18 h, Streptococcus faecalis 29212, Table 32, ratio of weight; read-out: Minimum Inhibitory Concentration: MIC"}, "[9]": {"tested_on": "Citrobacter diversus 2046E", "assay": "In vitro antibacterial activity (MIC, agar medium dilution), Biological Example 4", "assay_type": "cell-based", "conditions": "Citrobacter koseri, 18 h, Table 32, ratio of weight, read-out: Minimum Inhibitory Concentration: MIC"}, "[10]": {"tested_on": "Escherichia coli TEM3 3455E", "assay": "In vitro antibacterial activity (MIC, agar medium dilution), Biological Example 4", "assay_type": "cell-based", "conditions": "TEM33455E, 18 h, read-out: Minimum Inhibitory Concentration: MIC, Escherichia coli TEM3 3455E, Table 32, ratio of weight"}, "[11]": {"tested_on": "Klebsiella aerogenes 1082E", "assay": "In vitro antibacterial activity (MIC, agar medium dilution), Biological Example 4", "assay_type": "cell-based", "conditions": "18 h, Table 32, ratio of weight, read-out: Minimum Inhibitory Concentration: MIC"}, "[12]": {"tested_on": "Pseudomonas aeruginosa 1912E", "assay": "In vitro antibacterial activity (MIC, agar medium dilution), Biological Example 4", "assay_type": "cell-based", "conditions": "18 h, Table 32, ratio of weight, read-out: Minimum Inhibitory Concentration: MIC"}, "[13]": {"tested_on": "Klebsiella aerogenes 1976E", "assay": "In vitro antibacterial activity (MIC, agar medium dilution), Biological Example 4", "assay_type": "cell-based", "conditions": "18 h, Table 32, ratio of weight, read-out: Minimum Inhibitory Concentration: MIC"}, "[14]": {"tested_on": "Escherichia coli TEM5 3739E", "assay": "In vitro antibacterial activity (MIC, agar medium dilution), Biological Example 4", "assay_type": "cell-based", "conditions": "TEM53739E, 18 h, read-out: Minimum Inhibitory Concentration: MIC"}, "Staphylococcus aureus 77": {"tested_on": "Staphylococcus aureus 77", "assay": "In vitro antibacterial activity (MIC, agar medium dilution), Biological Example 4", "assay_type": "cell-based", "conditions": "18 h; Staphylococcus aureus 77, Table 32, ratio of weight; read-out: Minimum Inhibitory Concentration: MIC"}, "[15]": {"tested_on": "Staphylococcus aureus 6538p", "assay": "In vitro antibacterial activity (MIC, agar medium dilution), Biological Example 4", "assay_type": "cell-based", "conditions": "18 h, Table 32, ratio of weight without considering molecular weight, read-out: Minimum Inhibitory Concentration: MIC"}, "[16]": {"assay": "Antibacterial activity of methanesulfonate and its hydrate", "assay_type": "cell-based"}, "Escherichia coli 851E": {"tested_on": "Escherichia coli 851E", "assay": "In vitro antibacterial activity (MIC, agar medium dilution), Biological Example 4", "assay_type": "cell-based", "conditions": "18 h, Table 32, ratio of weight, read-out: Minimum Inhibitory Concentration: MIC"}, "Escherichia coli 10536": {"tested_on": "Escherichia coli 10536", "assay": "In vitro antibacterial activity (MIC, agar medium dilution), Biological Example 4", "assay_type": "cell-based", "conditions": "Escherichia coli, 10536, 18 h, read-out: Minimum Inhibitory Concentration: MIC, Escherichia coli 10536, Table 32, ratio of weight"}, "[17]": {"tested_on": "Staphylococcus epidermidis 887E", "assay": "In vitro antibacterial activity (MIC, agar medium dilution), Biological Example 4", "assay_type": "cell-based", "conditions": "18 h, read-out: Minimum Inhibitory Concentration: MIC, Staphylococcus epidermidis 887E, Table 32, ratio of weight"}, "[18]": {"tested_on": "Staphylococcus aureus giorgio", "assay": "In vitro antibacterial activity (MIC, agar medium dilution), Biological Example 4", "assay_type": "cell-based", "conditions": "18 h, Table 32, ratio of weight, read-out: Minimum Inhibitory Concentration: MIC"}, "[19]": {"tested_on": "Staphylococcus epidermidis 178", "assay": "In vitro antibacterial activity (MIC, agar medium dilution), Biological Example 4", "assay_type": "cell-based", "conditions": "18 h; Staphylococcus epidermidis 178, Table 32, ratio of weight; read-out: Minimum Inhibitory Concentration: MIC"}},
  "note": "Where two headings read alike, the source gives them in different places.",
  "data": [
    {"molecule": "CON=C1CN(c2nc3c(cc2F)c(=O)c(C(=O)O)cn3C2CC2)CC1CN.CS(=O)(=O)O", "note": "(centres unmarked) [Methanesulfonate, 7-(4-aminomethyl-3-methyloxyiminopyrrolidin-1-yl)-1-cyclopropyl-6-fluoro-4-oxo-1,4-dihydro-1,8-naphthyridine-3-carboxylic acid methanesulfonate]", "values": [
      {"measurement": "MIC", "setting": "[1]", "result": 0.031, "unit": "µg/mL"},
      {"measurement": "MIC", "setting": "Micrococcus luteus 9341", "result": 0.13, "unit": "µg/mL"},
      {"measurement": "MIC", "setting": "[2]", "result": 0.031, "unit": "µg/mL"},
      {"measurement": "MIC", "setting": "[3]", "result": 0.031, "unit": "µg/mL"},
      {"measurement": "solubility", "setting": "physchem; pH 2, Water Solubility, phosphate buffered solution (pH 2)", "result": "> 20", "unit": "mg/mL"},
      {"measurement": "solubility", "setting": "physchem; pH 7, Water Solubility, phosphate buffered solution (pH 7)", "result": "> 30", "unit": "mg/mL"},
      {"measurement": "MIC", "setting": "[4]", "result": 4, "unit": "µg/mL"},
      {"measurement": "solubility", "setting": "[5]", "result": "excellent solubility"},
      {"measurement": "MIC", "setting": "Enterobacter cloacae P99", "result": 0.016, "unit": "µg/mL"},
      {"measurement": "MIC", "setting": "Seratis marsecence 1826E", "result": 0.13, "unit": "µg/mL"},
      {"measurement": "MIC", "setting": "[6]", "result": 0.5, "unit": "µg/mL"},
      {"measurement": "MIC", "setting": "Bacillus subtilis 6633", "result": 0.016, "unit": "µg/mL"},
      {"measurement": "MIC", "setting": "[7]", "result": 0.031, "unit": "µg/mL"},
      {"measurement": "antibacterial activity", "setting": "test strains", "result": "excellent antibacterial activity"},
      {"measurement": "MIC", "setting": "Proteus vulgaris 6059", "result": 0.25, "unit": "µg/mL"},
      {"measurement": "MIC", "setting": "Escherichia coli 3190Y", "result": 0.008, "unit": "µg/mL"},
      {"measurement": "MIC", "setting": "[8]", "result": 0.13, "unit": "µg/mL"},
      {"measurement": "MIC", "setting": "[9]", "result": 0.031, "unit": "µg/mL"},
      {"measurement": "MIC", "setting": "[10]", "result": 0.25, "unit": "µg/mL"},
      {"measurement": "MIC", "setting": "[11]", "result": 0.031, "unit": "µg/mL"},
      {"measurement": "MIC", "setting": "[12]", "result": 0.25, "unit": "µg/mL"},
      {"measurement": "MIC", "setting": "[13]", "result": 0.13, "unit": "µg/mL"},
      {"measurement": "MIC", "setting": "[14]", "result": 0.13, "unit": "µg/mL"},
      {"measurement": "MIC", "setting": "Staphylococcus aureus 77", "result": 0.031, "unit": "µg/mL"},
      {"measurement": "MIC", "setting": "[15]", "result": 0.016, "unit": "µg/mL"},
      {"measurement": "antibacterial activity compared with the free form", "setting": "[16]", "result": "the same potent antibacterial activity as the free form"},
      {"measurement": "MIC", "setting": "Escherichia coli 851E", "result": 0.016, "unit": "µg/mL"},
      {"measurement": "MIC", "setting": "Escherichia coli 10536", "result": 0.008, "unit": "µg/mL"},
      {"measurement": "MIC", "setting": "[17]", "result": 0.016, "unit": "µg/mL"},
      {"measurement": "water solubility compared with other salts and free form", "result": "superior to that of the tartarate, the sulfurate, and the p-toluenesulfonate as well as the free form"},
      {"measurement": "MIC", "setting": "[18]", "result": 0.016, "unit": "µg/mL"},
      {"measurement": "MIC", "setting": "[19]", "result": 4, "unit": "µg/mL"}
    ]}
  ]
}
